Measured values taken from the supplement of paper PMC10307832.

How the values were obtained:
Experiment in all cases: relative viability (nuclei count vs DMSO), 5 days (fraction); higher = more cells survive
HCC-44 = tested on: HCC-44
Method in brief: (§1)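 Lung cancer cell lines were pin-tool dosed in 1536-well plates on the day after seeding, with either a lone drug or a fixed anchor-drug dose plus five library-drug doses (not always all listed) in √10 steps. Nuclei were counted on 4× images after 5 days. Relative viability is the ratio of treated-well to vehicle-well nuclei counts, with each value a median of duplicate plates.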

SK-MES-1 = tested on: SK-MES-1
Method in brief: as §1

LCLC-103H = tested on: LCLC-103H
Method in brief: as §1

NCI-H520 = tested on: NCI-H520
Method in brief: as §1

NCI-H1915 = tested on: NCI-H1915
Method in brief: as §1

LXF-289 = tested on: LXF-289
Method in brief: as §1

COR-L 105 = tested on: COR-L 105
Method in brief: as §1

LOU-NH91 = tested on: LOU-NH91
Method in brief: as §1

NCI-H1975 = tested on: NCI-H1975
Method in brief: as §1

NCI-H1793 = tested on: NCI-H1793
Method in brief: as §1

NCI-H2023 = tested on: NCI-H2023
Method in brief: as §1

HCC-827 = tested on: HCC-827
Method in brief: as §1

A-427 = tested on: A-427
Method in brief: as §1

SW 1573 = tested on: SW 1573
Method in brief: as §1

NCI-H1993 = tested on: NCI-H1993
Method in brief: as §1

NCI-H2087 = tested on: NCI-H2087
Method in brief: as §1

NCI-H358 = tested on: NCI-H358
Method in brief: as §1

H3255 = tested on: H3255
Method in brief: as §1

NCI-H1792 = tested on: NCI-H1792
Method in brief: as §1

NCI-H1944 = tested on: NCI-H1944
Method in brief: as §1

Cc1cn(-c2cc(NC(=O)c3ccc(C)c(Nc4nccc(-c5cccnc5)n4)c3)cc(C(F)(F)F)c2)cn1 [Nilotinib] + C[C@]1(O)C[C@@H](c2nc(-c3ccc4ccc(-c5ccccc5)nc4c3)c3c(N)nccn32)C1 [Linsitinib] (partner 1 µM)
relative viability (HCC-44; first compound 0.001 µM): 0.624
relative viability (HCC-44; first compound 0.003162 µM): 0.768
relative viability (HCC-44; first compound 0.01 µM): 0.821
relative viability (HCC-44; first compound 0.03162 µM): 0.615
relative viability (HCC-44; first compound 0.1 µM): 0.739
relative viability (SK-MES-1; first compound 0.003162 µM): 1.29
relative viability (SK-MES-1; first compound 0.01 µM): 1.16
relative viability (SK-MES-1; first compound 0.03162 µM): 1.12
relative viability (LCLC-103H; first compound 0.001 µM): 1.19
relative viability (LCLC-103H; first compound 0.003162 µM): 1.17
relative viability (LCLC-103H; first compound 0.03162 µM): 0.783
relative viability (LCLC-103H; first compound 0.1 µM): 1.17
relative viability (NCI-H520; first compound 0.001 µM): 0.792
relative viability (NCI-H520; first compound 0.01 µM): 1.2
relative viability (NCI-H520; first compound 0.03162 µM): 0.91
relative viability (NCI-H520; first compound 0.1 µM): 0.928
relative viability (NCI-H1915; first compound 0.001 µM): 1.01
relative viability (NCI-H1915; first compound 0.003162 µM): 1.09
relative viability (NCI-H1915; first compound 0.03162 µM): 1.06
relative viability (NCI-H1915; first compound 0.1 µM): 1.09
relative viability (LXF-289; first compound 0.001 µM): 0.979
relative viability (LXF-289; first compound 0.003162 µM): 1.15
relative viability (LXF-289; first compound 0.01 µM): 1.09
relative viability (LXF-289; first compound 0.03162 µM): 0.949
relative viability (LXF-289; first compound 0.1 µM): 0.92
relative viability (COR-L 105; first compound 0.001 µM): 0.913
relative viability (COR-L 105; first compound 0.01 µM): 1
relative viability (COR-L 105; first compound 0.03162 µM): 0.849
relative viability (COR-L 105; first compound 0.1 µM): 0.823
relative viability (LOU-NH91; first compound 0.001 µM): 0.929
relative viability (LOU-NH91; first compound 0.003162 µM): 1.01
relative viability (LOU-NH91; first compound 0.01 µM): 0.976
relative viability (LOU-NH91; first compound 0.03162 µM): 0.926
relative viability (LOU-NH91; first compound 0.1 µM): 0.917
relative viability (NCI-H1975; first compound 0.001 µM): 0.913
relative viability (NCI-H1975; first compound 0.003162 µM): 1.23
relative viability (NCI-H1975; first compound 0.01 µM): 1.03
relative viability (NCI-H1975; first compound 0.03162 µM): 0.688
relative viability (NCI-H1975; first compound 0.1 µM): 0.822
relative viability (NCI-H1793; first compound 0.003162 µM): 1.09
relative viability (NCI-H1793; first compound 0.01 µM): 1.41
relative viability (NCI-H1793; first compound 0.03162 µM): 0.734
relative viability (NCI-H1793; first compound 0.1 µM): 0.443
relative viability (NCI-H2023; first compound 0.001 µM): 0.74
relative viability (NCI-H2023; first compound 0.003162 µM): 0.735
relative viability (NCI-H2023; first compound 0.01 µM): 0.798
relative viability (NCI-H2023; first compound 0.03162 µM): 0.666
relative viability (NCI-H2023; first compound 0.1 µM): 0.525
relative viability (HCC-827; first compound 0.001 µM): 0.944
relative viability (HCC-827; first compound 0.003162 µM): 1.08
relative viability (HCC-827; first compound 0.01 µM): 1.08
relative viability (HCC-827; first compound 0.1 µM): 0.941
relative viability (A-427; first compound 0.001 µM): 1.13
relative viability (A-427; first compound 0.01 µM): 1.26
relative viability (A-427; first compound 0.03162 µM): 1.16
relative viability (A-427; first compound 0.1 µM): 1.01
relative viability (SW 1573; first compound 0.001 µM): 0.939
relative viability (SW 1573; first compound 0.003162 µM): 0.935
relative viability (SW 1573; first compound 0.01 µM): 0.73
relative viability (SW 1573; first compound 0.03162 µM): 0.756
relative viability (SW 1573; first compound 0.1 µM): 0.841
relative viability (NCI-H1993; first compound 0.001 µM): 0.808
relative viability (NCI-H1993; first compound 0.003162 µM): 0.74
relative viability (NCI-H1993; first compound 0.01 µM): 0.702
relative viability (NCI-H1993; first compound 0.03162 µM): 0.804
relative viability (NCI-H1993; first compound 0.1 µM): 0.769
relative viability (NCI-H2087; first compound 0.001 µM): 0.855
relative viability (NCI-H2087; first compound 0.003162 µM): 0.949
relative viability (NCI-H2087; first compound 0.01 µM): 1.08
relative viability (NCI-H2087; first compound 0.03162 µM): 0.852
relative viability (NCI-H2087; first compound 0.1 µM): 0.66
relative viability (NCI-H358; first compound 0.001 µM): 0.67
relative viability (NCI-H358; first compound 0.003162 µM): 0.893
relative viability (NCI-H358; first compound 0.01 µM): 0.847
relative viability (NCI-H358; first compound 0.03162 µM): 0.474
relative viability (NCI-H358; first compound 0.1 µM): 0.612
relative viability (H3255; first compound 0.001 µM): 0.817
relative viability (H3255; first compound 0.003162 µM): 1.06
relative viability (H3255; first compound 0.01 µM): 1.2
relative viability (H3255; first compound 0.03162 µM): 0.875
relative viability (H3255; first compound 0.1 µM): 0.952
relative viability (NCI-H1792; first compound 0.001 µM): 0.334
relative viability (NCI-H1792; first compound 0.01 µM): 0.583
relative viability (NCI-H1792; first compound 0.1 µM): 0.565
relative viability (NCI-H1944; first compound 0.001 µM): 1.08
relative viability (NCI-H1944; first compound 0.003162 µM): 1.41
relative viability (NCI-H1944; first compound 0.01 µM): 1.5
relative viability (NCI-H1944; first compound 0.03162 µM): 1.33
relative viability (NCI-H1944; first compound 0.1 µM): 1.36
